Test results reported in ChEMBL document CHEMBL1201862, “PubChem BioAssay data set” (2004).
The source made the active and inactive calls.

Assays:
[1] = A cytotoxicity screen of small molecule inhibitors of the PhoP region in Salmonella typhi identified in the primary screen. [Related pubchem assays: 1850, 1864, 1985 ]; assay type: functional
[2] = molecular target: T1, Endoribonuclease toxin MazF (Escherichia coli K-12, UniProt P0AE70); test: fluorescent RNA oligo signal without MazF, dose response, counter-screen for MazEF activator project, biochemical, fluorescence, single-stranded RNase substrate (AID 588502); assay type: functional
T1 sequence (P0AE70 whole entry): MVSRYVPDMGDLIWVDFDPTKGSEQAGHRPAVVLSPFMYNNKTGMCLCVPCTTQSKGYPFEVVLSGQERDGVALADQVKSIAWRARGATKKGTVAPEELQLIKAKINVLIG

[3] = molecular target: T2, RNA-binding protein pos-1 (Caenorhabditis elegans, UniProt G5EF15); test: inhibitors of POS-1/mex-3 RNA binding, dose response, biochemical, fluorescence polarization (AID 1964);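 note: purified POS-1 fused to maltose binding protein made in E. coli; potency of compounds blocking POS-1 binding to fluorescent RNA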
T2 sequence (G5EF15 whole entry): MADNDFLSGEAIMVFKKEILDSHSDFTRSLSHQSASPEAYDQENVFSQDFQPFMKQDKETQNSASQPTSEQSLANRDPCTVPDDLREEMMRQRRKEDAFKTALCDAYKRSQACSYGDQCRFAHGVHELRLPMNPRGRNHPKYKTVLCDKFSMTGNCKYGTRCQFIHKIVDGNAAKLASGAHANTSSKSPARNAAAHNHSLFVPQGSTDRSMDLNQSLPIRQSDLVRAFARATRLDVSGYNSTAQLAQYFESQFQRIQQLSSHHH

[4] = molecular target: T1, Endoribonuclease toxin MazF; test: MazF toxin RNase activators, dose response, biochemical, fluorescence, single-stranded RNA substrate, uHTS hits (AID 588481); assay type: functional
[5] = molecular target: T3, Corticotropin-releasing factor receptor 2/Corticotropin-releasing factor-binding protein (Homo sapiens, UniProt P24387+Q13324); test: activators of CRF receptor 2 with binding protein – uHTS hits, confirmation (AID 602473); assay type: functional; conditions: read-out: EC50_Mean
T3 sequence (Q13324 whole entry): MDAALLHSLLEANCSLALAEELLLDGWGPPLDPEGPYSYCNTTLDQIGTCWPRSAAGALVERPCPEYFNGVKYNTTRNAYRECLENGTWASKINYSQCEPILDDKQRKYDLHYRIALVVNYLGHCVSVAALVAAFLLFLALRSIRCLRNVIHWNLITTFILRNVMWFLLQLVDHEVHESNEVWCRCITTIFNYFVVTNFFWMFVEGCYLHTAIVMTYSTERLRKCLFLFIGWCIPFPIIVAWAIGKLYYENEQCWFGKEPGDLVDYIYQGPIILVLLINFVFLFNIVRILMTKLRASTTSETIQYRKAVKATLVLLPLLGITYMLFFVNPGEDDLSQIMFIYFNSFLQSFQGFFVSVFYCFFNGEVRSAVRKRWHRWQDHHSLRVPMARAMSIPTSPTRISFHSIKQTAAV
T3 sequence (P24387 whole entry): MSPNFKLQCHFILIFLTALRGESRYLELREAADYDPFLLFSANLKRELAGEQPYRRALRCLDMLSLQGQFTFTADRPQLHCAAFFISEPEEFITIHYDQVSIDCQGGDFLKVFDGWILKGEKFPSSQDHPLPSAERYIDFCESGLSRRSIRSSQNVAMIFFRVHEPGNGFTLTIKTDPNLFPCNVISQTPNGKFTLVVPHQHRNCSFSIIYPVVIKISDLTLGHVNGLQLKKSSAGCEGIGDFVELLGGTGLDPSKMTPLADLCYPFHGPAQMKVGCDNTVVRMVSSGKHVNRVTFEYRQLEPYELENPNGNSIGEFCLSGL

[6] = molecular target: T4, Zinc finger protein mex-5 (Caenorhabditis elegans, UniProt Q9XUB2); test: MEX-5/TCR-2 RNA interaction inhibitors, dose response, biochemical, C. elegans, fluorescence polarization (AID 1960)
T4 sequence (Q9XUB2 whole entry): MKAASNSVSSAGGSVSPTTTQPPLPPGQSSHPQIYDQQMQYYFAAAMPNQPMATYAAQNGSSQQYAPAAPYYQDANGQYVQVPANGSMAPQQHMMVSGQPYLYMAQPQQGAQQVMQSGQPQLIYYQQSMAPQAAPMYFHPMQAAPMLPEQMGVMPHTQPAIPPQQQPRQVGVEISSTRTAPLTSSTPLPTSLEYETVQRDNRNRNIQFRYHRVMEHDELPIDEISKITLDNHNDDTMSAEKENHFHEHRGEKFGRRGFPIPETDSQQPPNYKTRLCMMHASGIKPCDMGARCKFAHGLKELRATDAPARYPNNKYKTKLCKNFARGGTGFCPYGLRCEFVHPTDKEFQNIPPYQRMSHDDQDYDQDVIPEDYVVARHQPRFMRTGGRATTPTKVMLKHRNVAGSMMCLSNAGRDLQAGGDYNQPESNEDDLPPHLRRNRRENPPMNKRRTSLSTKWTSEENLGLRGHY

[7] = molecular target: T5, E3 ubiquitin-protein ligase XIAP (Homo sapiens, UniProt P98170); test: XIAP antagonists, biochemical, IAP family, fluorescence polarization (AID 1018); assay type: functional
[8] = molecular target: T5, E3 ubiquitin-protein ligase XIAP; test: Counter Screen using XIAP-Bir3 for Chemical Antagonists of Bir1/2 domains of IAP-family anti-apoptotic proteins. [Related pubchem assays (depositor defined):AID1018, AID1449, AID1514, AID1638, AID1749, AID1750, AID488957, AID488963]
[9] = molecular target: Voltage-dependent T-type calcium channel subunit alpha-1H (Homo sapiens, UniProt O95180); assay type: functional;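 note: channel activity triggered by adding a high calcium stimulation buffer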
[10] = inhibitors of clade B AD8 Env fusion, dose response, cell-based, cherry-pick (AID 652062); assay type: functional;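 note: luciferase signal from cell-cell fusion driven by HIV-1 clade B AD8 Env; potency is for inhibitors of fusion seen as a drop in luminescence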
[11] = ZM109 Env clade C HIV-1 fusion inhibitors, dose response, HeLa effector, CEM target cells, luciferase, cherry-pick (AID 652058); assay type: functional, cell-based
[12] = inhibitors of HIV Env-driven cell fusion, dose response, cherry-pick (AID 652057); assay type: functional, cell-based
[13] = off-target signal loss in HeLa-CEM21 co-culture – HeLa F-luc CTL cells, cherry-picked, counter-screen for HIV-1 Env fusion inhibitor project, dose response (AID 652040); assay type: functional, cell-based;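 note: potency for signal decrease marking cytotoxic or nonspecific inhibition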
[14] = HEp-2 cell cytotoxicity, dose response, cytotoxicity control for RSV inhibitor project, HTS (AID 2410); assay type: functional; conditions: human respiratory syncytial virus
[15] = molecular target: T6, Cytochrome P450 1A2 (Homo sapiens, UniProt P05177);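 note: PubChem cytochrome P450 panel assay, CYP1A2 panel member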
T6 sequence (P05177 whole entry): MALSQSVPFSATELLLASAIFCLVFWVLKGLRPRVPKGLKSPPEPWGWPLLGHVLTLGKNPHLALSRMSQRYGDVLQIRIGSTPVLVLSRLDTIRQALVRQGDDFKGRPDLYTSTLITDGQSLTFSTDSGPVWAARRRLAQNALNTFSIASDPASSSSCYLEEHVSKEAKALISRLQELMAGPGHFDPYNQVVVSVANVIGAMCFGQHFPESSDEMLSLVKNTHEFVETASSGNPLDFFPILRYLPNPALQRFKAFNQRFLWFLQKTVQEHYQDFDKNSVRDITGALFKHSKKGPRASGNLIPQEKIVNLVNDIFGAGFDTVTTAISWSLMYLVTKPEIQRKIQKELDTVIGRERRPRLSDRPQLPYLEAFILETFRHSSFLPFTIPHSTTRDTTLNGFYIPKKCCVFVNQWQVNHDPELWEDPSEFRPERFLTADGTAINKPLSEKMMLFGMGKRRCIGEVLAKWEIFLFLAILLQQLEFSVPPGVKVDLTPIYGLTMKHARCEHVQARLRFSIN

[16] = molecular target: Cytochrome P450 2C9 (Homo sapiens, UniProt P11712)
[17] = molecular target: Cytochrome P450 2C19 (Homo sapiens, UniProt P33261); test: Cytochrome panel assay with activity outcomes. Panel member name: p450-cyp2c19 Compounds with AC50 equal or less than 10 uM are considered active; assay type: functional; conditions: read-out: AC50
[18] = molecular target: Cytochrome P450 2D6 (Homo sapiens, UniProt P10635);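 note: CYP2D6 member of a cytochrome P450 panel assay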
[19] = THP-1 cell cytotoxicity, dose response, cytotoxicity control for Vif-APOBEC3G degradation inhibitor project, THP-1 cells (AID 1117359); assay type: functional; conditions: Human immunodeficiency virus 1, THP-1
[20] = molecular target: Glyceraldehyde-3-phosphate dehydrogenase (Homo sapiens, UniProt P04406)
[21] = molecular target: T7, Carboxy-terminal domain RNA polymerase II polypeptide A small phosphatase 1 (Homo sapiens, UniProt Q9GZU7); test: inhibitors of CTDSP1, concentration-response testing, biochemical assay, absorbance-based, actives from ultra-high-throughput screening (AID 540297); assay type: functional
T7 sequence (Q9GZU7 whole entry): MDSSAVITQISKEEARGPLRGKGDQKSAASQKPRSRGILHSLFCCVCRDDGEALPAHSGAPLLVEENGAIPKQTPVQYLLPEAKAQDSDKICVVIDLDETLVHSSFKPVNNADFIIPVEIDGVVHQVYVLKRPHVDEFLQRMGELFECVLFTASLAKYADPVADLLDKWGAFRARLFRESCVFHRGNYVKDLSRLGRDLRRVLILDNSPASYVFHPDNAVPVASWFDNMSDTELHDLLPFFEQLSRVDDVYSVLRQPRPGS

[22] = cytotoxicity toward NIH3T3 fibroblasts, dose response, counter-screen, cell-based, ATP luminescence, mouse fibroblasts (AID 2010); assay type: functional;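 note: cells exposed to compound for about 90 hours before reading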
[23] = inhibitors of intracellular T. cruzi replication, confirmation, NIH3T3 host cells, beta-gal luminescence (AID 2044); assay type: functional, cell-based;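 note: intracellular parasites grown in NIH/3T3 mouse fibroblasts as host cells; luminescent beta-galactosidase reporter signal from transgenic T. cruzi replicating inside host cells; inhibitors lower the luminescence signal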

T5 sequence (P98170 whole entry): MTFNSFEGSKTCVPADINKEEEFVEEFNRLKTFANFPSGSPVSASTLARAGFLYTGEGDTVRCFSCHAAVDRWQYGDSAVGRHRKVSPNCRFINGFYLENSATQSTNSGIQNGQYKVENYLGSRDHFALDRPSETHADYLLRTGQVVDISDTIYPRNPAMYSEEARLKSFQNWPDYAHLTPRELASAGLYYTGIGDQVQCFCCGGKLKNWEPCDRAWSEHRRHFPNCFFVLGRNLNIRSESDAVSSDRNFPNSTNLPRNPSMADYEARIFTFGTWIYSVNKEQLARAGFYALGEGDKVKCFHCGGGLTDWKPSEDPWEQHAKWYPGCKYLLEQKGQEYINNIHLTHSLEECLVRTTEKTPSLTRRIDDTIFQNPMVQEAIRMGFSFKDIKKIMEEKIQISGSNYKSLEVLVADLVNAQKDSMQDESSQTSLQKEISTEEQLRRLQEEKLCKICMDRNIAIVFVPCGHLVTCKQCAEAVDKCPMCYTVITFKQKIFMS
Chain of Voltage-dependent T-type calcium channel subunit alpha-1H (O95180 whole entry, the tested form may be a part): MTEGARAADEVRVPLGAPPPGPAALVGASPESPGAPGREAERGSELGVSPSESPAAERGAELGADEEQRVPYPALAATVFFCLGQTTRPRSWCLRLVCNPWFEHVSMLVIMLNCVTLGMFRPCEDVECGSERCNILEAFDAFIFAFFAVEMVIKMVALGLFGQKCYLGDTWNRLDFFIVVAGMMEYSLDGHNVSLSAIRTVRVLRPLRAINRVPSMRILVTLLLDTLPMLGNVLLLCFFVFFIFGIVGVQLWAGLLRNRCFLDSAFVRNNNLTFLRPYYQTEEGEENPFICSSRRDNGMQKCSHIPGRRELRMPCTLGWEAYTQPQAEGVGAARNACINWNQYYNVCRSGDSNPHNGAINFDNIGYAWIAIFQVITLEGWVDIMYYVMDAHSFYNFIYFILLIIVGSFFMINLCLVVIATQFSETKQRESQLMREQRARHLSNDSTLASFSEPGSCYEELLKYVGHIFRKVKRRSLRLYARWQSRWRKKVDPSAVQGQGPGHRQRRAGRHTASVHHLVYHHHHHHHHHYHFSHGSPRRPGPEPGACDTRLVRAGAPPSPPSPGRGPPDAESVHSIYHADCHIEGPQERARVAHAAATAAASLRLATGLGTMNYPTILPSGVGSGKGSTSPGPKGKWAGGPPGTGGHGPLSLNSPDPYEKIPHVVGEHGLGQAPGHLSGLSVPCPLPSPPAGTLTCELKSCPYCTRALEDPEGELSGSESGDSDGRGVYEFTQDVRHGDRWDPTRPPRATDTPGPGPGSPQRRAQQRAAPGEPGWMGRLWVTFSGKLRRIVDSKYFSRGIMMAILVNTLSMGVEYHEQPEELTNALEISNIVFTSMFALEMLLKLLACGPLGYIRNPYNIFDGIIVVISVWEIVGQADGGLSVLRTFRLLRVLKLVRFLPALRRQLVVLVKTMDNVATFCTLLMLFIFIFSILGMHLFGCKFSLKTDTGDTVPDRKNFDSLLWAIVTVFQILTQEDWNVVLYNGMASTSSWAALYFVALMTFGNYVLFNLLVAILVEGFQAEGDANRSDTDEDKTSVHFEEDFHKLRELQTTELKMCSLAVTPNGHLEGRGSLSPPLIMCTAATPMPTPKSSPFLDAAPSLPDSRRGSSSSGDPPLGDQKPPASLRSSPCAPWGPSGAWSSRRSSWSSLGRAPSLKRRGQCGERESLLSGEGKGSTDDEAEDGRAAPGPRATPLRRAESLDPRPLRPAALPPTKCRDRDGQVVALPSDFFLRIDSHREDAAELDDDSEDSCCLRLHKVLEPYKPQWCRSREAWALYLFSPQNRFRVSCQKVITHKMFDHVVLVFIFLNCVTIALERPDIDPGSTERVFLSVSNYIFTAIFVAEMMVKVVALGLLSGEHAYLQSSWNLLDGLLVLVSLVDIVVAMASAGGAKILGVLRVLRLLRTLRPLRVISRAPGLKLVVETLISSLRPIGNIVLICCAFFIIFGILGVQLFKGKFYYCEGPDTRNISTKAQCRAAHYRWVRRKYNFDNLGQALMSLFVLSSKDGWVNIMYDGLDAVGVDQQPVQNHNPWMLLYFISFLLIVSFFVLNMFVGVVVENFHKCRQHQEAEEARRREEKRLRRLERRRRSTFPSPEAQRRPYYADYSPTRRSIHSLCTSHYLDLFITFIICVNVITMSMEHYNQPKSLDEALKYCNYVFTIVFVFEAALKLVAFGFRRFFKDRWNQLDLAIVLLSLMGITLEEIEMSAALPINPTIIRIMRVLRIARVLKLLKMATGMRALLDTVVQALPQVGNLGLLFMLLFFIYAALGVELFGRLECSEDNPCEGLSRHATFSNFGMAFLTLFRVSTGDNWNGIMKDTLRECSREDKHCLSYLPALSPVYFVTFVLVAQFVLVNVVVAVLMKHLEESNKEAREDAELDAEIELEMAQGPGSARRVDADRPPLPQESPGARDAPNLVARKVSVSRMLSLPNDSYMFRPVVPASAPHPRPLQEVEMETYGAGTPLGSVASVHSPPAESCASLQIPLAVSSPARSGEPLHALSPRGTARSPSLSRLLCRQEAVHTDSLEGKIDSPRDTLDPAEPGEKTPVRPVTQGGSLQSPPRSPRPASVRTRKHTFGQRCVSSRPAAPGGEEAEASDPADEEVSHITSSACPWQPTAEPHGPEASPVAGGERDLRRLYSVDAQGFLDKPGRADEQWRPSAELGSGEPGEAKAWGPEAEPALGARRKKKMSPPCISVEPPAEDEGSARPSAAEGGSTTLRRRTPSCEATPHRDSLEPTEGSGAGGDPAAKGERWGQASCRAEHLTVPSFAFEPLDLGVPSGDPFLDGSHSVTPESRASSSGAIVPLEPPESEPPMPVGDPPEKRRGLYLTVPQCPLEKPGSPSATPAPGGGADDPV
Chain of Glyceraldehyde-3-phosphate dehydrogenase (P04406 whole entry, the tested form may be a part): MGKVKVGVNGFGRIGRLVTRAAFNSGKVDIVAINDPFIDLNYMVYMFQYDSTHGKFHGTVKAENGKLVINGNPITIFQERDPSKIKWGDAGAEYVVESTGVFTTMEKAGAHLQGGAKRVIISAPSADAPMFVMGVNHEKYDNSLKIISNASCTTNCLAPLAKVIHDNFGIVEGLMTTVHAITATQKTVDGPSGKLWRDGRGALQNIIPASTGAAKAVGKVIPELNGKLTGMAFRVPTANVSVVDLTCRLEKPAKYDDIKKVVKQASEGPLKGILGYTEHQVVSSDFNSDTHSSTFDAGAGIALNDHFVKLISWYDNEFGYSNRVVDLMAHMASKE
Chain of Cytochrome P450 2C19 (P33261 whole entry): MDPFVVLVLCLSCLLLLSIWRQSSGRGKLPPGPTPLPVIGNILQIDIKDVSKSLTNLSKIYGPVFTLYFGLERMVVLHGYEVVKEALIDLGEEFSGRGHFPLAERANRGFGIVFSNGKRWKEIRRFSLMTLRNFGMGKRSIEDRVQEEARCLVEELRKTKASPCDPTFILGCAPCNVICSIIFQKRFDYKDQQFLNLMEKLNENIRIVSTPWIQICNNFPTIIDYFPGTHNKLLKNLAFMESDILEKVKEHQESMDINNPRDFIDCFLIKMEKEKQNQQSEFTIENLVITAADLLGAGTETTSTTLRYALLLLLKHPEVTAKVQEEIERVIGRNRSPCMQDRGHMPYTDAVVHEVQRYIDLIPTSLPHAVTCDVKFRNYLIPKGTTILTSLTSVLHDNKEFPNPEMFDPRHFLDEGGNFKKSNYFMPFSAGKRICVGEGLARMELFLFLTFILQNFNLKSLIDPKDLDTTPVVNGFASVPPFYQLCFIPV
Chain of Cytochrome P450 2C9 (P11712 whole entry): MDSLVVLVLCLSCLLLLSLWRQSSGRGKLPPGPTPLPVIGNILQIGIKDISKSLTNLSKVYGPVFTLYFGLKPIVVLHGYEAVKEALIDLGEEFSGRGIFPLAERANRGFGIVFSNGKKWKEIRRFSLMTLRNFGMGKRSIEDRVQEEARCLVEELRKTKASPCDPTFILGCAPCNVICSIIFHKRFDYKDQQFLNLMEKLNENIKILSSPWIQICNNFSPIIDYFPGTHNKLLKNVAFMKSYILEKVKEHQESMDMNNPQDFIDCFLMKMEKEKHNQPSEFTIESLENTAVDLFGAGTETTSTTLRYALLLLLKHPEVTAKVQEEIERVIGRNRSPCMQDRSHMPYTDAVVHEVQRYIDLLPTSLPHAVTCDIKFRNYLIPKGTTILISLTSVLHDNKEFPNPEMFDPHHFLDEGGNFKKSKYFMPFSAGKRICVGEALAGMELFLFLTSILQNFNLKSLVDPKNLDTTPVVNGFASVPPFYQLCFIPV
Chain of Cytochrome P450 2D6 (P10635 whole entry): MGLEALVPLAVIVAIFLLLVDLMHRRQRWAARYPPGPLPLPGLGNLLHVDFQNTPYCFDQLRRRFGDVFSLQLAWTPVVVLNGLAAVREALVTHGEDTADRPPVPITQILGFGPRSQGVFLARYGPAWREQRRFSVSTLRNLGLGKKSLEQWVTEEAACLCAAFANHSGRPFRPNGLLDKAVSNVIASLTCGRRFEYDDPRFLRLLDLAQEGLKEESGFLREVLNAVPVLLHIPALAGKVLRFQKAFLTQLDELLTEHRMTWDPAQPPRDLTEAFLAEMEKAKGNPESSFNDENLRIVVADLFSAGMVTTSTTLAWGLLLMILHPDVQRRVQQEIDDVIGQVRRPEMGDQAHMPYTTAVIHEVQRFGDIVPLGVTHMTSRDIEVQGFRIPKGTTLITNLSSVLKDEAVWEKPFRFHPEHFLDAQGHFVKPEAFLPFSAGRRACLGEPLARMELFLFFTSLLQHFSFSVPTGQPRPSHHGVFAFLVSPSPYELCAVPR

CCSc1nc(C)cc(C)c1S(=O)(=O)c1ccccc1C
EC50 [1]: > 50 µM (active)

Cn1cc(C=C2C(=O)NC(=O)NC2=O)c2ccccc21
EC50 [2]: 21.1 µM (inactive) | EC50 [3]: 6.99 µM (inconclusive) | EC50 [4]: > 99 µM (inactive) | EC50 [5]: 24.1 µM (active) | EC50 [6]: 5.82 µM (inconclusive)

Oc1ccc(C2NCc3ccccc3-n3cccc32)cc1Cl (stereo not given)
EC50 [1]: > 50 µM (active)

Cc1cc(O)nc(NN=C(CC(C)C)CC(C)C)n1
IC50 [7]: > 100 µM (not active) | IC50 [8]: > 100 µM (inactive)

Cc1cc(Cl)c(S(=O)(=O)Nc2ccc3c(c2)OCO3)cc1OCC(=O)NC1CCCCC1
EC50 [9]: 2.06 µM (active)

Oc1ccccc1C=NN=Cc1c(O)ccc2ccccc12
EC50 [2]: > 99 µM (inactive) | EC50 [4]: > 99 µM (inactive) | EC50 [5]: 5.17 µM (active)

Cc1ccc2c(c1)NC(=O)C(CC(=O)O)O2 (stereo not given)
IC50 [7]: > 100 µM (not active) | IC50 [8]: > 100 µM (inactive)

CC1(C(=O)N(c2ccccc2)C(C(=O)NC2CCCC2)c2ccccn2)CC(=O)N=C2C=CC=CN21 (stereo not given)
IC50 [7]: > 100 µM (not active) | IC50 [8]: > 100 µM (inactive)

OC1=C2C(=Nc3ccccc3NC2c2cccs2)CCC1 (stereo not given)
AC50 [10]: 3.83 µM (active) | AC50 [11]: 1.3 µM (active) | AC50 [12]: 2.27 µM (active) | AC50 [13]: 2.44 µM (active)

COC(=O)c1cc2sccc2n1Cc1nc(-c2cccc(Cl)c2)oc1C
IC50 [7]: > 100 µM (not active) | IC50 [8]: > 100 µM (inactive)

Cc1ccc(C)c(Cn2c(CO)nc3ccccc32)c1
EC50 [9]: 2.68 µM (active)

COC(=O)c1ccccc1NC(=O)Cn1cnc2c(cnn2-c2ccccc2)c1=O
EC50 [2]: > 99 µM (inactive) | EC50 [4]: > 99 µM (inactive)

CCCCCc1nc2c(c3c1CCCC3)CCCC2
EC50 [1]: > 50 µM (active)

Cc1cc(NC(=O)CSc2c(C)[nH]c3ccccc23)no1
EC50 [9]: 5.22 µM (active)

COc1cccc(C(c2nnnn2CCc2ccccc2)N2CCN(c3ccccc3)CC2)c1OC (stereo not given)
EC50 [9]: 0.986 µM (active)

Cc1ccc2[nH]c(SCc3ccc([N+](=O)[O-])cc3)nc2c1
CC50 [14]: 13.6 µM (active) | AC50 [15]: 1.12 µM (active) | AC50 [16]: 3.55 µM (active) | AC50 [17]: 0.794 µM (active) | AC50 [18]: 5.01 µM (active) | EC50 [9]: 4.41 µM (active)

Clc1cccc(/C(Cc2nc3ccccc3[nH]2)=N\Nc2ccccc2)c1
EC50 [2]: > 99 µM (inactive) | EC50 [4]: > 99 µM (inactive)

CC1=CC(=C2N=C(c3ccccc3)OC2=O)C=C(C)O1
EC50 [2]: > 99 µM (inactive) | EC50 [3]: 142 µM (inconclusive) | EC50 [4]: > 99 µM (inactive) | EC50 [6]: 12.3 µM (inconclusive)

COc1ccc(C2(O)CCN(Cc3nnnn3Cc3ccc(F)cc3)CC2)cc1
CC50 [19]: > 40 µM (active)

O=C(c1ccc(N2CCN(C(=O)c3ccccc3Br)CC2)cc1)c1cccc(F)c1
IC50 [20]: > 100 µM (not active)

O=C(CCCCCCCC(=O)NNC(=O)Nc1ccccc1)NNC(=O)Nc1ccccc1
IC50 [21]: 11.9 µM (active)

CCCCCCOc1ccc(CN2CCN(CC)CC2)cc1
EC50 [1]: > 50 µM (active) | EC50 [22]: > 30 µM (not active) | EC50 [23]: 0.752 µM (active)

O=C(C[n+]1cc(-c2ccccc2)n2c1CCC2)c1cccs1
EC50 [1]: > 50 µM (active)

O=C(COc1cccc2ccccc12)NNC(=O)CSCCO
IC50 [7]: > 100 µM (not active) | IC50 [8]: > 100 µM (inactive)

O=C1CCCN1c1ccc(CNS(=O)(=O)c2ccc(F)cc2)cc1
EC50 [1]: > 50 µM (active)

CC[C@@]12C(=O)N(c3cccc(F)c3)C(=O)N1[C@H](c1ccc(Br)cc1)[C@@H]1C(=O)N(C(C)(C)C)C(=O)[C@@H]12
AC50 [10]: < 0.26 µM (active) | AC50 [11]: < 0.26 µM (active) | AC50 [12]: < 0.26 µM (active) | AC50 [13]: < 0.26 µM (active)
